Series [1] has as its system rats with spinal cord injury (SCI). The series is described as follows: Rat cervical SCI model: neurobehavioral assessment (inclined plane, paw placement, rearing). Type of series: in vivo. Here is the method: SCI injury model. This study was performed in accordance with the guidelines of the Institutional Animal Care and Use Committee. Adult female Long-Evans rats (275-350 gm) were anesthetized (Ketamine, 60 mg/kg plus Xylazine, 7.5 mg/kg, i.p.). The dura at C4-5 was exposed via a left hemilaminectomy. A hemi-cervical spinal cord contusion was created using a blunt force impactor (1.3-mm impactor head driven by a 10 gm weight dropped vertically 25 mm) (Soblo sky et al., 2001; Gensel et al., 2006). After SCI, animals were given 10 ml of glucose-free normal saline s.q. Rectal temperature was maintained at ˜37° C. using a servo-controlled warming blanket.
For in vivo gene suppression of SUR1, we used oligodeoxynucleotides that were phosphorothioated at 4 distal bonds to protect against endogenous nucleases (35).
Neurobehavioral assessment. All measurements were performed by blinded evaluators. Performance on the inclined plane was evaluated as described (Rivlin and Tator, 1977). To assess paw placement and vertical exploration (rearing) (Nikulina et al., 2004) animals were videotaped while in a translucent cylinder (19×20 cm). Rearing was quantified as the number of seconds spent with both front paws elevated above shoulder-height during a 3-min period of observation.

The conditions of series [2]: loading dose 10 μg/kg i.p. plus 200 ng/hr s.q.; cited from earlier work.
The subject of series [3] is rats with subarachnoid hemorrhage (SAH). The experiment in a line: Rat SAH model: immunohistochemistry of inferomedial cortex and posterior cerebral artery. Type of series: in vivo. The conditions noted are these: 24 hr after SAH. The procedure:
Model of SAH. All surgical procedures were approved by the Institutional Animal Care and Use Committee of the University of Maryland. […] Fasted male Wistar rats (225-275 gm; Harlan, Indianapolis, Ind.) were anesthetized (ketamine, 60 mg/kg and xylazine, 7.5 mg/kg, intraperitoneally) and allowed to ventilate air spontaneously. Temperature was maintained at 37° C. using a heating pad regulated by a rectal temperature sensor (Harvard Apparatus, Holliston, M A). The laser Doppler flowmetry (LDF) probe (MoorLab, Moore Instruments, Sussex, UK) was affixed to the skull. The right carotid sheath was exposed through a ventral midline incision, the common, external and internal carotid arteries (CCA, ECA, ICA) were dissected, and the pterygopalatine artery was ligated. Typical blood gases (i-STAT, Heska Corp, Fort Collins, Colo.), sampled from the CCA before injury, were pO2>90 mm Hg, pCO2<47 mm Hg, and glucose 150-200 mg/dl.
The model of SAH involved a single endovascular puncture of the ICA using a 4-0 filament sharpened at its tip, followed by reperfusion of the ICA (Schwartz et al. 2000). With temporary clips on the CCA and ICA, the ECA was divided proximal to the ligature, the 4-0 nylon filament was introduced through the stump of the ECA into the ICA, arterial puncture was produced at ˜19 mm under LDF monitoring, the filament was withdrawn, the ECA stump was ligated and flow was restored to the CCA/ICA. Unlike the widely used method in which a 3-0 filament is used to produce severe hemorrhage associated with high mortality, the method used here utilizing a 4-0 filament produced mild-tomoderate SAH associated with low mortality. We monitored rCBF using LDF to confirm the sharp drop after puncture and filament withdrawal, and to assure the full recovery in rCBF within 10-15 min of restoration of flow in the ICA, making ischemic injury less likely than in versions of the model in which the CCA is ligated.
Controls received the same volume of vehicle in the same way. […] The osmotic mini-pumps delivered 0.5 μl/hr, yielding infusion doses of 200 ng/hr.
Rats were euthanized 24 hr after induction of SAH. In some cases, fresh tissues were collected for immunoblot. In other cases, animals underwent perfusion fixation for immunohistochemistry or in situ hybridization.
Immunohistochemistry. Cryosections (10 μm) were post-fixed with 4% formaldehyde and immunolabeled using standard techniques. After permeabilizing (0.3% Triton X-100 for 10 min), sections were blocked (2% donkey serum for 1 hr; Sigma D-9663), then incubated with primary antibody directed against: SUR1 (1:200; SC-5789; Santa Cruz Biotechnology); NeuN (1:100; MAB377; Chemicon, CA); GFAP (1:500; CY3 conjugated; C-9205; Sigma, St. Louis, Mo.); vonWillebrand factor (1:200; F3520, Sigma); TNFα (1:100; Santa Cruz); p65 (1:100; Santa Cruz); FITC-conjugated IgG (1:200; Santa Cruz); ZO-1 (1:100; Zymed Laboratories). Fluorescent-labeled, species appropriate secondary antibodies (Molecular Probes, OR) were used for visualization. Omission of primary antibody and competition with antigenic peptides, when available, were used as negative controls. Fluorescent signals were visualized using epifluorescence microscopy (Nikon Eclipse E1000).
For quantitative immunohistochemistry, all sections were immunolabeled as a single batch, as previously described (Gerzanich et al. 2003). All images were collected using uniform parameters of magnification and exposure. Segmentation analysis was performed by computing a histogram of the pixel intensity for equal regions of interest (ROI) using IP Lab software, with the ROI confined to the 400 μm of parenchymal tissue dorsal to the pia of the inferomedial cortex ipsilateral to the SAH. For IgG, the overall pixel intensity of the ROI was determined and the background was subtracted. […]

Series [4] can be described thus: Testing of glibenclamide doses for effect on serum glucose in rats. To be noted: dose1-dose4 (loading 2.5-20 μg/kg i.p., infusion 75-600 ng/hr s.q.); uninjured, stroke and SCI rats. Type of series: in vivo, rat.
Another series relates to rats with percussion-TBI. The experiment in a line: Percussion-TBI rats: extravasated blood (progressive secondary hemorrhage). The class given is in vivo, rat. The text has this: Young adult male Long-Evans rats, 240-280 gm, were studied. Rats were anesthetized (Ketamine and Xylazine) and physiological parameters including temperature and blood gases were maintained within appropriate physiological ranges. With the head fixed in a stereotaxic frame, a 6-mm circular craniectomy was created abutting the sagittal and lambdoidal sutures. A posterior location was chosen to emphasize damage to underlying hippocampus (Vink et al., 2001; Floyd et al., 2002). […] Sham controls underwent craniectomy without percussion.

The mark [5] stands for this setting: 1, 3 and 7 d post-SCI, vs vehicle.

SMILES strings stand for the structures.

`COc1ccc(Cl)cc1C(=O)NCCc1ccc(S(=O)(=O)NC(=O)NC2CCCCC2)cc1` [glibenclamide]: in series [1] (setting [5]), the “performance on inclined plane” value is recorded as “significantly better performance” and the “vertical exploratory behavior (rearing)” value is listed as “significantly better performance”. Besides, in series [1] (1 d post-SCI, 200 ng/h s.q.), the “vertical exploration (rearing), time during 3-min observation” value was determined as 42 ± 7 s. Also, the ipsilateral paw placement entry in series [1] (1 d post-SCI, vs vehicle) is “significantly better performance”. Besides, in series [1] (post-SCI, vs vehicle-treated rats generally not mobile), the general mobility result is “typically ambulatory and often exhibited proficient exploratory behavior”. For the same compound, in series [2], the “effect on serum glucose” value is on record as “minimal effects” and the estimated serum concentration is recorded as less than 10 nM. For the same compound, in series [3], the “protein (IgG) endocytosis by neurons” value was “essentially absent”. Also, in series [3] (5 rats), the “caspase-3 activation in the PCA” value was “absent in ⅘ rats and was minimal in the fifth”. Further, in series [3] (vs vehicle), the “ZO-1 localization in PCA endothelium” value was “significantly reduced cytoplasmic localization and restored intercellular localization”; the “caspase-3 activation in parenchymal tissues” value is “significantly reduced”; the “local inflammation (TNFα, p65 immunolabeling)” value is recorded as “significantly reduced”; the “reactive astrocytosis (GFAP immunolabeling)” value is “significantly reduced”. The “effect of doses on serum glucose” value in series [4] was “only the highest are hypoglycemogenic, but only mildly so”. Also, in the series with rats with percussion-TBI (6 and 24 hr post-TBI, vs vehicle), the “extravasated blood at later times” value is “prevented further increases in blood”. Also, the “volume of blood in brain homogenate” value with rats with percussion-TBI (½ hr post-TBI) was “did not affect”.
